We go through 88 molecules from a melting point compilation (Tetko et al.; mined from patent text by program, amines drawn as free bases though some values may be those of a salt).

By melting point is commonly meant the temperature of the solid-liquid transition.

In turn, `CCCCCCCCCCCCCCCC(=O)OCC(CO)CCn1cnc2c(=O)[nH]c(N)nc21` (stereo not drawn) gave a melting point of 183 to 191 °C.
The value for `O=C(O)C1CC(=O)N(Cc2ccccc2)C1c1c(Cl)cccc1Cl` (stereo not drawn) was 179 to 181 °C; that for `COc1cc2c(cc1OC)CC(N(C)CCCN1CCc3cc4c(cc3CC1=O)OCCO4)CC2` (stereo not drawn) was 152 to 157 °C.
The value for `NC(=O)c1c(Cl)c(-c2ccccc2)n2c1CN(S(=O)(=O)c1ccc(F)cc1)CC2` was 177 to 178 °C; that for `O=C(CC1CC1)NC[C@H]1CN(c2ccc3c(c2)CCCc2cn[nH]c2-3)C(=O)O1` was 212 to 215 °C.
The value for `CCOC1=NN(C)C(=O)C1` was 79 to 80 °C.
Take `COCC(=O)c1cnc(C2OCCO2)s1`: the melting point lay within 65 to 66 °C.
`CCCc1c(O)n2c3c(=O)n(C)c(=O)n(C)c3nc2n(Cc2ccccc2)c1=O` had a melting point of 217 °C.
The value for `CCCNCC(O)c1ccc(F)cc1` (stereo not drawn) was 58.6 to 78.8 °C; that for `COC=C1CCC(c2ccc(C(=O)OC)cc2)CC1` (stereo not drawn) was 58 °C.
The value for `COc1ccc(C2C(C#N)=C(N)OC3=C2C(=O)CC(C)(C)C3)cc1` (stereo not drawn) was 197 to 200 °C; that for `N#Cc1cc(-c2ccoc2)c2ccc(COc3cc(F)cc(-c4ccc(F)cc4)c3)cc2n1` was 177 to 180 °C.
Consider `NC(=O)C1(N2C(=O)c3cccc(Br)c3C2=O)CCCCC1`, for which the melting point lay in the range of 199 to 200 °C.
The value for `Cc1ncc([N+](=O)[O-])cc1Nc1nccc(-c2ccccc2)n1` was 133 °C.
Consider `COCC1CN(c2ccc(C3CCC(=C(C)C)CC3)cc2)C(=O)O1` (racemic), for which the melting point fell in the range of 89 to 91 °C.
The value for `CCCOc1c(C(=O)OCC)oc2ccc([N+](=O)[O-])cc12` was 107 °C; that for `COc1cc(Nc2c(C#N)cnc3cc(-c4ccc(CN5CCCCC5)cc4)sc23)c(Cl)cc1Cl` was 218 to 220 °C.
The value for `Nc1cccc2c(OCc3ccccc3)ccnc12` was 115 °C; that for `CCOC(=O)c1cc(Nc2cccc(Cl)c2Cl)c(C(=O)OCC)cc1Nc1cccc(Cl)c1Cl` was 265 to 266 °C; that for `O=C(NC1CC1)c1ccc(-c2ccc3nnn(Cc4ccc5ncccc5c4)c3n2)cc1F` was 193 to 195 °C.
Molecule `O=C(O)C=CC=CCSc1ccccc1` registered a melting point of 108 to 110 °C.
For `O=C(Nc1ccc(Cl)c(C(F)(F)F)c1)Oc1ccc2c(c1)CCCN2Cc1ccccc1`, the melting point was found to be 151 °C.
As for `CCCCc1nc2c(N)nc3ccc(OCC(=O)N4CCCCC4)cc3c2n1C`, the melting point lay in the range of 222 to 223 °C.
The value for `Fc1ccc(C(CN2CCOCC2)=C2SCCCS2)cc1` was 104 to 106 °C.
In turn, `CC1CCCCN1c1nc(N)nc(-c2cc(Cl)ccc2Cl)n1` (stereo not drawn) displayed a melting point of 136 to 137 °C.
The value for `C=CC1CC2C3CCC4=CC(=O)CCC4=C3C(c3ccc(-c4ccc(OC)nc4)cc3)CC2(C)C1C(=O)C1CC1` (stereo not drawn) was 197 °C.
The molecule `Nc1ccn(C2OC(CO)C(O)C2O)c(=O)c1Cl` (stereo not drawn) gave a melting point of 197 to 199 °C.
The value for `CC(C)Nc1c(-c2c(F)cc(F)cc2F)c(F)nc2nccnc12` was 127 to 128 °C; that for `COC[C@@H](O)CN1CCC(c2ccc(-c3nc4c(N[C@H]5[C@@H](C(N)=O)[C@@H]6C=C[C@H]5C6)c(Cl)cnc4[nH]3)c(OC)c2)CC1` was 189 to 191 °C.
The value for `COc1ccc(N2CCN(c3ccncc3)CC2)cc1` was 165 to 167 °C; that for `O=C(c1cccs1)C1CCN(CCc2ccccc2)CC1` was 77 to 79 °C.
The value for `COc1ccc(C(=O)C2=C(O)C(=O)N(c3nnc(C)s3)C2c2ccc(O)cc2)cc1` (stereo not drawn) was 251 °C; that for `CC12CCC(C(=O)O)=CC1=CCC1C2CCC2(C)C(C(=O)CCc3ccccc3)CCC12` (stereo not drawn) was 218 to 220 °C; that for `N=c1n(Cc2ccc(Cl)cc2)c2ccc(Cl)cc2n1Cc1ccc(Cl)cc1` was 175 to 177 °C.
For the molecule `CC#CC1(O)CCC2C3CCC4=CC(=O)CCC4C3CCC21CCC` (stereo not drawn), the melting point lay in the range of 182 to 184 °C.
The value for `CSc1c(N)nc(N2CCOCC2)nc1Cl` was 115 °C.
The value for `NC(=O)c1ccc(N2CCN(Cc3cn4cc(Br)ccc4n3)CC2)cc1` was 238 to 239 °C; that for `CCNC(=O)Oc1cccc(NC(=O)CC(C)=O)c1` was 138 °C; that for `CC(=O)NC[C@H]1CN(c2ccc(C3CCN(CCF)CC3)c(F)c2)C(=O)O1` was 155 to 157 °C.
The value for `CCCCN(CCCC)c1nc(Nc2ccc3c(c2)C(=O)c2ccccc2C3=O)nc(N(CCCC)CCCC)n1` was 140 to 145 °C.
As for `CCC1c2cc(Cl)ccc2-c2ccc(Cl)cc21`, the melting point lay in the range of 80 to 83 °C.
`CC(C(=O)OCc1ccc([N+](=O)[O-])cc1)N(C(=O)OC(C)(C)C)C1CC1` (stereo not drawn) showed a melting point of 117 to 118 °C.
The value for `ON=C1CCSc2sccc21` was 123 to 124 °C; that for `CC(C)(C)OC(=O)C(C(=O)c1ccc(NS(C)(=O)=O)cc1Cl)C(=O)C1CC1` (stereo not drawn) was 137 to 140 °C.
The value for `NCCn1cnc2c(N)nc3ccccc3c21` was 265 °C.
The value for `Cc1cc(N=Nc2ccccn2)cc(C)c1-c1ccc(-c2c(C)cc(N=Nc3ccccn3)cc2C)o1` was 206 to 207 °C.
`COc1ccc(C(=O)CCC2CCN(C(C)=O)CC2)cc1NC(=O)C(F)(F)F` registered a melting point of 77 to 79 °C.
The value for `O=C(C=C1CCN(Cc2ccc(F)cc2)CC1)NCc1ccc(F)c(F)c1` was 83 to 85 °C; that for `CC(C)(C)OC[C@@H]1NCCN(CC(=O)O)C1=O` was 178 to 180 °C; that for `CCC1(CC)c2cc(Br)ccc2-c2ccc(C=O)cc21` was 126 to 128 °C.
`N=C(N)NCCOc1ccc2c(c1)CC(CCC(=O)O)C(=O)N2` (stereo not drawn) returned a melting point of 119 to 122 °C.
The value for `O=S(=O)(Br)c1ccc(Br)s1` was 48 to 50 °C.
The value for `CCOC(=O)C(=CNCc1csnn1)C(=O)c1cc(F)c(F)cc1F` was 176 to 178 °C; that for `CCS(=O)(=O)c1ccc(C(CC2CCCC2)C(=O)Nc2ccccn2)cc1` (stereo not drawn) was 144 to 145 °C; that for `c1cc2cc([C@@H]3CO3)ccc2s1` was 72 to 76 °C.
The value for `CC(CO)c1ccc2c(c1)Cc1ccccc1O2` (stereo not drawn) was 86 to 89 °C.
Take `COc1ccc2c(Cc3c(Cl)cncc3Cl)nnc(-c3nccs3)c2c1`: the melting point lay within 225 to 230 °C.
The value for `Cc1ccc(Cc2nc3c(cnn3C(CCCc3ccccc3)C(C)O)c(=O)[nH]2)cc1` (stereo not drawn) was 133 °C; that for `CCCCCCCCCCCCS(=O)(=O)C(C#N)=C1C=C(N2CCCC2)CC(C)(C)C1` was 114 to 115 °C; that for `Cc1noc2cc3c(cc12)C1(CO3)C(=O)N(Cc2ccccn2)c2ccccc21` (stereo not drawn) was 142 to 143 °C.
`O=C(NC1CCCCC1)NC1N=C(C2CCCCC2)c2ccccc2N(CC(=O)N2CC3CCC(CC3)C2)C1=O` (racemic) showed a melting point of 195 to 197 °C.
The molecule `Nc1ccc(C2(OC(=O)Nc3ccccc3)NCCC(c3ccccc3)O2)cc1` (stereo not drawn) had a melting point of 110 °C.
With `O=C(Nc1cn[nH]c1-c1ccc(F)cc1)c1c(F)cccc1F`, the melting point is 112 °C.
`O=C(O)c1ccc(CC(NC(=O)C(c2ccccc2)c2ccccc2)c2ccccc2)cc1` (stereo not drawn) returned a melting point of 245 to 248 °C.
Molecule `N#Cc1ccc(N2CCC(CO)CC2)cc1` gave a melting point of 148 to 150 °C.
The value for `CCCCOCCOc1ccc(-c2ccc3c(c2)C=C(C(=O)O)CCN3CC2CC2)cc1` was 152 to 155 °C; that for `CSC1NC(=O)N(c2ccccc2)C(=O)N1N=C(C)C` (stereo not drawn) was 206 to 207 °C.
The value for `CC(C)(C)OC(=O)N(CC(=O)O)CC(=O)O` was 135 to 137 °C; that for `COc1ccc(CSc2nnc(-c3ccnc(N)c3)o2)cc1F` was 166 to 167 °C; that for `O=C1c2ccccc2S(=O)(=O)N1C1CCN(Cc2c[nH]c3ccccc23)CC1` was 214 to 215 °C.
The value for `Nc1c(F)c(N2CC(O)C2)c(F)c2c1c(=O)c(C(=O)O)cn2C1CC1` was 271 to 275 °C.
On to `COc1ccc(-c2c(C(N)=O)c3n(c2Cl)CCN(C(=O)NC(C)(C)C)C3)cc1`, for which the melting point was in the range of 168 to 170 °C.
The value for `COc1cc2ncnc(Nc3cccc(Cl)c3F)c2cc1OC1CCN(C(=O)CO)CC1` was 196 °C; that for `CCn1c(C=O)c(-c2ccc(F)cc2)c(C(C)C)c1C(=O)O` was 182 °C.
The value for `O=C1NCCN1c1ccc(S(=O)(=O)Nc2ccc3c(c2)OCO3)cc1` was 219 to 220 °C.
The value for `CN(C(=S)SC(C[N+](=O)[O-])c1ccccc1)c1ccccc1` (stereo not drawn) was 111 to 116 °C; that for `Cc1cc(O)nc(C=Cc2ccccc2)n1` was 217 to 219 °C.
`Cc1cc(CCCCCCCOc2ccc(C(=O)O)cc2)on1` had a melting point of 129 to 130 °C.
The value for `COc1ccc(-c2cccc(C3SC(N4CCOCC4)=NC3=O)n2)cc1-c1ccccc1` (stereo not drawn) was 214 to 217 °C; that for `FC(F)(F)c1cccc(Oc2nccc(-c3ccc(Cl)c(Cl)c3)n2)c1` was 106 °C.
The value for `N#CC(CCCCCC(=O)O)c1ccc2ccccc2c1` (stereo not drawn) was 88 to 89 °C; that for `COc1ccc(C)cc1NC(=O)Nc1ccc2c(c1)CCN(C(=O)Nc1ccc(OCC(O)CO)cc1Cl)C2` (stereo not drawn) was 119 to 121 °C.
In turn, `COC(=O)C1=C(C)NC(C)=C(C(=O)OCCN(C)Cc2ccccc2)C1c1cc([N+](=O)[O-])ccn1` (stereo not drawn) displayed a melting point of 163 °C.
The value for `C#CCn1c(Br)c(C[C@H](NC(C)=O)C(=O)OC)c2c(Br)c(OC)c(Br)cc21` was 284 to 285 °C; that for `CC(C)C(C(=O)O)N1CC(N)C1=O` (stereo not drawn) was 178 to 183 °C; that for `CN1CCN(c2cccc3ccc(NCc4cccc5ccccc45)cc23)CC1` was 140 to 141 °C.
The value for `O=C(O)C1=Cc2cc(-c3ccc(Cl)s3)ccc2OC1C(F)(F)F` (stereo not drawn) was 205 to 206 °C; that for `CCn1ncc2c(Cl)c3c(nc21)C(O)c1ccccc1CC3` (stereo not drawn) was 128 to 130 °C.
